From patent EP0313782A2, “Antimycotic preparations” (BAYER AG, priority 1987, dated 1989)

System: Candida-Zellen
Assay: Antimycotic in vivo efficacy (oral) in mouse candidiasis
Design: species or system Mäuse vom Typ SPF-CF₁
Conditions: for Wirkung: mice infected i.v. with 1 - 2 x 10⁶ Candida cells, oral treatment 1 h before and 7 h after infection, 10 - 100 mg/kg each, survivors on day 6 p.i. (untreated controls about 5 %); for Wirkung (comparison with the known compounds (A) and (B)): same test, statement in words in the text
Procedure: Antimykotische in-vivo-Wirksamkeit (oral) bei Mäusecandidose
Mäuse vom Typ SPF-CF₁ wurden intravenös mit 1 - 2 x 10⁶ logarithmisch wachsenden Candida-Zellen, die in physiologischer Kochsalzlösung suspendiert werden, infiziert. Eine Stunde vor und sieben Stunden nach der Infektion werden die Tiere mit jeweils 10 - 100 mg/kg Körpergewicht der Präparate oral behandelt.
Unbehandelte Tiere starben 3 bis 6 Tage post infektionem. Die Überlebensrate am 6.Tag post infektionem betrug bei unbehandelten Kontrolltieren etwa 5 %.

| Structure (SMILES) | Wirkung | Wirkung (comparison with the known compounds (A) and (B)) |
| --- | --- | --- |
| OC(Cn1cncn1)(c1ccc(F)cc1F)C1(SC(F)(F)F)CC1 (stereo not drawn) [I-1, 1-(2,4-Difluorphenyl)-1-hydroxy-2-(1,2,4-triazol-1-yl)-1-(1-trifluormethylmercapto-cycloprop-1-yl)-ethan] | +++++ (sehr gute Wirkung = 90 % Überlebende am 6.Tag.p.i.) | bessere Wirkung |
| OC(Cn1cncn1)(c1ccc(F)cc1)C1(SC(F)(F)F)CC1 (stereo not drawn) [I-4] | +++++ (sehr gute Wirkung = 90 % Überlebende am 6.Tag.p.i.) | bessere Wirkung |
| [O-][S+](C(F)(F)F)C1(C(O)(Cn2cncn2)c2ccc(F)cc2F)CC1 (stereo not drawn) [I-2, 1-(2,4-Difluorphenyl)-1-hydroxy-2-(1,2,4-triazol-1-yl)-1-(trifluormethylsulfoxy-cycloprop-1-yl)-ethan] | +++++ (sehr gute Wirkung = 90 % Überlebende am 6.Tag.p.i.) | bessere Wirkung |
